The text below walks through data of ChEMBL document CHEMBL1649540, “The novel CXCR4 antagonist KRH-3955 is an orally bioavailable and extremely potent inhibitor of human immunodeficiency virus type 1 infection: comparative studies with AMD3100” (Antimicrob Agents Chemother, 2009).

In experiment [1] the test system is Human immunodeficiency virus 1. The experiment is described as follows: Antiviral activity against NRTI-resistant HIV1 HXB2 infected in HEK293 cells assessed as inhibition of viral replication after 2 days. The format is functional, organism-based. The following applies: Human immunodeficiency virus 1, HXB2, HEK293, 48 h.
Experiment [2] relates to Human immunodeficiency virus 1. The experiment is described as follows: Antiviral activity against PI-resistant HIV1 HXB2 infected in HEK293 cells assessed as inhibition of viral replication after 2 days. It counts as functional, organism-based. The following applies: Human immunodeficiency virus 1, HXB2, HEK293, 48 h.
Experiment [3] has as its system C-X-C chemokine receptor type 4 (Homo sapiens), P61073 [H281A]. The experiment is described as follows: Inhibition of Mab 12G5 binding to CXCR4 H281A mutant expressed in HEK293 cells. The format is cell-based.
Experiment [4] deals with Human immunodeficiency virus 1. The experiment is described as follows: Antiviral activity against multidrug resistant HIV1 HXB2 infected in HEK293 cells assessed as inhibition of viral replication after 2 days. The format is functional, organism-based. The following applies: Human immunodeficiency virus 1, HXB2, HEK293, 48 h.
Experiment [5] relates to Human immunodeficiency virus 1. The experiment is described as follows: Antiviral activity against HIV1 HXB2 infected in HEK293 cells assessed as inhibition of viral replication after 2 days. The format is functional, organism-based. The following applies: Human immunodeficiency virus 1, HXB2, HEK293, 48 h.
In experiment [6] the target is T1, C-X-C chemokine receptor type 4 (Homo sapiens, UniProt P61073). The following applies: MOLT-4; 1000 nM.
Description: Inhibition of Mab 12G5 binding to CXCR4 expressed in human MOLT4 cells at 1000 nM by FACS analysis
Experiment [7] relates to Human immunodeficiency virus 1. The experiment is described as follows: Antiviral activity against HIV1 NL4-3 infected in human PBMC assessed as inhibition of viral p24 antigen production after 7 to 10 days by ELISA. The following applies: Human immunodeficiency virus 1, NL4-3. It counts as functional, organism-based.
For experiment [8], the system named is Human immunodeficiency virus 1. The experiment is described as follows: Antiviral activity against HIV1 R5 infected in human PBMC assessed as inhibition of viral p24 antigen production after 7 to 10 days by ELISA. It counts as functional, organism-based. The following applies: Human immunodeficiency virus 1, R5. (An ELISA detects its analyte on a solid surface through an enzyme-linked reagent.)

Experiment [9] concerns C-X-C chemokine receptor type 4 (Homo sapiens), P61073 [V112A]. The experiment is described as follows: Inhibition of Mab 12G5 binding to CXCR4 V112A mutant expressed in HEK293 cells. It counts as cell-based.
Experiment [10] has as its system Human immunodeficiency virus 1. The experiment is described as follows: Antiviral activity against HIV1 A018G infected in human PBMC assessed as inhibition of viral p24 antigen production after 7 to 10 days by ELISA. The format is functional, organism-based. The following applies: Human immunodeficiency virus 1, A018G.
The test system of experiment [11] is C-X-C chemokine receptor type 4 (Homo sapiens), P61073 [D181A]. The experiment is described as follows: Inhibition of Mab 12G5 binding to CXCR4 D181A mutant expressed in HEK293 cells. It counts as cell-based.
Experiment [12] concerns Human immunodeficiency virus 1. The experiment is described as follows: Antiviral activity against HIV1 NL4-3 infected in HEK293 cells assessed as inhibition of viral replication after 2 days. The format is functional, organism-based. The following applies: Human immunodeficiency virus 1, NL4-3, HEK293, 48 h.
The test system of experiment [13] is Human immunodeficiency virus 1. The experiment is described as follows: Antiviral activity against HIV1 89.6 infected in human PBMC assessed as inhibition of viral p24 antigen production after 7 to 10 days by ELISA. The format is functional, organism-based. The following applies: Human immunodeficiency virus 1, 89.6.
The subject of experiment [14] is C-X-C chemokine receptor type 4 (Homo sapiens), P61073 [V280A]. The experiment is described as follows: Inhibition of Mab 12G5 binding to CXCR4 V280A mutant expressed in HEK293 cells. The format is cell-based.
Experiment [15] relates to Human immunodeficiency virus 1. The experiment is described as follows: Antiviral activity against HIV1 X4 infected in human PBMC assessed as inhibition of viral p24 antigen production after 7 to 10 days by ELISA. The format is functional, organism-based. The following applies: Human immunodeficiency virus 1, X4.
Experiment [16] has as its target T1, C-X-C chemokine receptor type 4. The experiment is described as follows: Displacement of [125I]SDF-1alpha form CXCR4 expressed in CHO cells at 0.1 to 1000 nmol/L by scintillation counting. It counts as cell-based. Background: Loss of bound radioactivity is the signal in a displacement assay; it reports binding, not function.
The test system of experiment [17] is Human immunodeficiency virus 1. The experiment is described as follows: Antiviral activity against HIV1 A018H infected in human PBMC assessed as inhibition of viral p24 antigen production after 7 to 10 days by ELISA. The format is functional, organism-based. The following applies: Human immunodeficiency virus 1, A018H.
The subject of experiment [18] is Human immunodeficiency virus 1. The experiment is described as follows: Antiviral activity against T20-resistant HIV1 NL4-3 infected in HEK293 cells assessed as inhibition of viral replication after 2 days. It counts as functional, organism-based. The following applies: Human immunodeficiency virus 1, NL4-3, HEK293, 48 h.
The target in experiment [19] is T1, C-X-C chemokine receptor type 4. The following applies: MOLT-4; 1000 nM. This is another data set of the same source.
Description: Inhibition of Mab 12G5 binding to CXCR4 expressed in human MOLT4 cells at 1000 nM measured post drug washout by FACS analysis
The subject of experiment [20] is Human immunodeficiency virus 1. The experiment is described as follows: Antiviral activity against NNRTI-resistant HIV1 HXB2 infected in HEK293 cells assessed as inhibition of viral replication after 2 days. The format is functional, organism-based. The following applies: Human immunodeficiency virus 1, HXB2, HEK293, 48 h.
Experiment [21] concerns Human immunodeficiency virus 1. The experiment is described as follows: Antiviral activity against HIV1 JRCSF infected in human PBMC assessed as inhibition of viral p24 antigen production after 7 to 10 days by ELISA. It counts as functional. The following applies: Human immunodeficiency virus 1, JRCSF ISOLATE.

pEC50, pIC50: −log10 of the molar value. Calls of active or inactive are those of the source. No cut-off for these calls is given here. Some results are limits rather than exact numbers.

T1 sequence (P61073 whole entry): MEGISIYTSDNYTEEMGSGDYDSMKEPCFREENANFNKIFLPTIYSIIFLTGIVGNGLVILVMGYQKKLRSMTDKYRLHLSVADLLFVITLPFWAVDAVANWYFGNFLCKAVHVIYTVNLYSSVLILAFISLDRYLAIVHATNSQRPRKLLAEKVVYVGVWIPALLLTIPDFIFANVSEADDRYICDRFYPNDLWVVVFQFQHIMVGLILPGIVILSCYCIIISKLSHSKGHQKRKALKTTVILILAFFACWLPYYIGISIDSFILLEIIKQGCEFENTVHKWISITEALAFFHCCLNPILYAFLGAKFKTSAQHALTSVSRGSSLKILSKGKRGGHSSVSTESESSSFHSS
C-X-C chemokine receptor type 4 (Homo sapiens), P61073 [D181A], sequence (P61073 whole entry D181A): as the sequence (P61073 whole entry) above, with D181A counted along it
C-X-C chemokine receptor type 4 (Homo sapiens), P61073 [V280A], sequence (P61073 whole entry V280A): as the sequence (P61073 whole entry) above, with V280A counted along it
C-X-C chemokine receptor type 4 (Homo sapiens), P61073 [H281A], sequence (P61073 whole entry H281A): as the sequence (P61073 whole entry) above, with H281A counted along it
C-X-C chemokine receptor type 4 (Homo sapiens), P61073 [V112A], sequence (P61073 whole entry V112A): as the sequence (P61073 whole entry) above, with V112A counted along it

Consider `c1cc(CN2CCCNCCNCCCNCC2)ccc1CN1CCCNCCNCCCNCC1` [PLERIXAFOR], for which the pIC50 (commonly the IC50 on a negative log10 scale, so that one unit is a factor of ten) in [1] was 8.05; in experiment [2] it was 8.04; in experiment [4], 8.28; in experiment [5] it was 8.21; in experiment [12], 8.34; in experiment [18] it was 8.64. Further, the pIC50 in experiment [20] was 8.15. Besides, the IC90 – broadly, the concentration at which the effect reaches the 90% level – in experiment [3] amounted to 572 nM; in experiment [9], 821 nM; in [11], 796 nM; in experiment [14], 821 nM. The inhibition entry in experiment [6] was “Active”. Moreover, the pEC50 (in general, the EC50 on a negative log10 scale, so that one unit is a factor of ten) in experiment [7] is 7.39; in experiment [8], less than 6.70; in [10] it was 7.49; in experiment [13], 7.36; in [15], 7.82; in experiment [17], 7.42. Moreover, in experiment [21], the pEC50 is less than 6.70. Also, the outcome in experiment [16] was inactive. Also, in experiment [19], the inhibition result was “inactive”.
Consider `Cc1cn([C@H]2C[C@H](N=[N+]=[N-])[C@@H](CO)O2)c(=O)[nH]c1=O` [ZIDOVUDINE], for which the pEC50 is 7.96 in experiment [7]; 8.21 in experiment [8]; 4.06 in [10]; 8.13 in [13]; 8.10 in experiment [15]; 8.72 in [17]. Also, the negative logarithm of the EC50 (pEC50) in experiment [21] is 9.02.
Regarding `CC(C)(C)NC(=O)[C@@H]1C[C@@H]2CCCC[C@@H]2CN1C[C@@H](O)[C@H](Cc1ccccc1)NC(=O)[C@H](CC(N)=O)NC(=O)c1ccc2ccccc2n1`, the pEC50 in experiment [7] was 8.05; in experiment [8] it was 8.10; in [13] it was 8.00; in experiment [15] it was 7.54; in [21] it was 8.59.
For the molecule `COC[C@@H](c1ccc(C(F)(F)F)cc1)N1CCN(C2(C)CCN(C(=O)c3c(C)ncnc3C)CC2)C[C@@H]1C` [VICRIVIROC], the pEC50 in experiment [7] was less than 6.00; in experiment [8], 8.92; in experiment [13], less than 6.00; in experiment [15] it was less than 6.00; in experiment [21], 9.43.
Turning to `NCCCCN(Cc1nc2ccccc2[nH]1)[C@H]1CCCc2cccnc21` [MAVORIXAFOR], the pEC50 in experiment [7] was 7.46; in [8], less than 6.70; in [13], 7.26; in experiment [15], 7.82; in [21], less than 6.70.
